According to patent US11434241B2, “Pyrimidine derivatives for prevention and treatment of bacterial infections” (UNIVERSITE DE LIEGE, priority 2018, dated 2022):
Converted amounts (≈) assume the structure as drawn. Like-named read-outs stand apart in the source and are kept apart here.

Tests used:
[1] = tested on: Staphylococcus epidermidis (ATCC 35984, also known as RP62A or MRSE); experiment: MIC determination on S. epidermidis (EUCAST, OD600 after overnight growth in MHB); format: cell-based
Protocol: The Minimal Inhibitory Concentration (MIC) of molecules 2329, 2348, 2412, 2452 and 2461 was determined on Staphylococcus epidermidis (ATCC 35984, also known as RP62A) according to EUCAST (European Committee on Antimicrobial Susceptibility Testing) recommendations.
Briefly, a single colony grown on a Tryptic Soy Agar (TSA) plate was resuspended and cultured in Tryptic Soy Broth (TSB) overnight (O/N) in aerobic conditions (37° C. with 220 rpm shaking), next day a 1:50 inoculum in Mueller-Hinton broth (MHB) was incubated in aerobic conditions for 3 hr and an inoculum of 1:100 dilution, corresponding to 3×10^5 CFU/ml, was incubated in presence or absence of different concentrations of the molecules in 1% DMSO (vehicle). After O/N growth the OD of each culture was measured at 600 nm in a spectrophotometer (OD600). The MIC represents the concentration at which there is no visible growth of bacteria, i.e. ΔOD at 600 nm equal to zero (blank is the medium alone).
The Minimal Inhibitory Concentration (MIC) of pyrazolopyrimidine molecules 2539, 2544, 2666,2676, 2693, 2783, 2784 and 2782 and of purine molecules 2498, 2511, 2525, 2527, 2833, and 2840 was determined on S. epidermidis (ATCC 35984, also known as RP62A or MRSE) according to EUCAST (European Committee on Antimicrobial Susceptibility Testing) recommendations.
Briefly, a single colony grown on an agar plate was resuspended and cultured in Triptic Soy Broth (TSB) medium overnight (O/N) in aerobic conditions (37° C. with 220 rpm shaking), next day a 1:50 inoculum in Mueller-Hinton broth (MHB) was incubated in aerobic conditions for 3 hr (OD=0.08-0.1) and an inoculum of 1:300 dilution, corresponding to 3×10^5 CFU/ml, was incubated in presence or absence of different concentrations of each of the molecules in 1% DMSO (vehicle). After O/N growth the OD of each culture was measured at 600 nm (600) in a spectrophotometer (Victor 3-Perkin Elmer). The MIC represents the concentration at which there is no visible growth of bacteria, i.e. ΔOD at 600 nm equal to zero (where ΔOD is the difference between the OD with the molecule and the OD of the blank, the medium alone).
(§1) Molecule 36z has been tested for its potential antibacterial activity by determining its minimal inhibitory concentration (MIC) according to protocols recommended by EUCAST to assess the efficacy of antibiotics against bacterial strains. In brief MIC in MRSA (ATCC BAA-1556) or in Xen29 (Perkin Elmer-ATCC 12600) for 36z (molecule 25 in WO2009/034386) was determined by culturing a single colony of MRSA or Xen29 in brain heart infusion (BHI) broth overnight (O/N) in aerobic conditions (37° C. with 220 rpm shaking), while MIC for MRSE (ATCC 35984) was determined by culturing MRSE in TSB O/N. Next day a 1:100 inoculum in Mueller-Hinton broth (MHB) is incubated in aerobic conditions for 3 hr (OD=0.08-0.1) and an inoculum of 1:300 dilution, corresponding to 3×10^5 CFU/ml, is incubated in presence or absence of different concentrations of the tested molecules in 1% DMSO. After O/N growth the OD of each culture was measured at 600 nm (OD600) in a spectrophotometer (Victor 3-Perkin Elmer). The MIC represents the concentration at which there is no visible growth of bacteria, i.e. ΔOD at 600 nm equal to zero (blank is the medium alone). No antibacterial activity was found against MRSA (ATCC BAA-1556), Xen29 (Perkin Elmer-ATCC 12600 or MRSE (ATCC 35984) strains when the molecule was used at concentrations up to 200 μM.

[2] = tested on: methicillin-resistant S. aureus (MRSA) ATCC BAA-1556; experiment: MIC determination on methicillin-resistant S. aureus; format: cell-based, Staphylococcus aureus; settings: for MIC: Staphylococcus aureus; for antibacterial activity against MRSA (in words): MHB medium
Protocol: (§2) Further experiments are conducted using different strains of S. aureus, as clinically relevant Gram-positive bacterial strains: S. aureus ATCC 25904, methicillin-resistant S. aureus (MRSA) ATCC BAA-1556, Glycopeptide intermediate-resistant (GISA) S. aureus Mu-50 (ATCC 700695) in order to determine the Minimal Inhibitory Concentration (MIC) which is the minimal concentration required to prevent bacterial growth. The bioluminescent strain S. aureus Xen29 (ATCC 12600) was also used. This strain is derived from the parental strain S. aureus ATCC 12600, a pleural fluid isolate, which is also designated as NCTC8532.
(§3) A single colony selected from the different strains of S. aureus is resuspended and cultured in brain heart infusion (BHI) broth overnight (O/N) in aerobic conditions (37° C. with 220 rpm shaking), next day a 1:100 inoculum in Mueller-Hinton broth (MHB) is incubated in aerobic conditions for 3 hr (=OD0.08-0.1) and an inoculum of 1:300 dilution, corresponding to 3×10^5 CFU/ml, is incubated in presence or absence of different concentrations of the tested molecules in 1% DMSO. After O/N growth the OD of each culture was measured at 600 nm (OD600) in a spectrophotometer (Victor 3-Perkin Elmer). The MIC represents the concentration at which there is no visible growth of bacteria, i.e. ΔOD at 600 nm equal to zero (blank is the medium alone). […] The MIC of molecule 2329 against Glycopeptide intermediate-resistant (GISA) S. aureus Mu-50 (ATCC 700695) is in between 25 and 30 μM, while it is above 50 μM for molecules 2348, 2412, and 2452.
(§4) Further experiments are conducted using different strains of S. aureus, as clinically relevant Gram-positive bacterial strains: methicillin-resistant S. aureus (MRSA) ATCC BAA-1556 and S. aureus Xen29 (Perkin Elmer ATCC 12600).
(§5) To determine the MIC of the above mentioned molecules in MRSA or in Xen29, a single colony of MRSA or Xen29 is resuspended and cultured in brain heart infusion (BHI) broth overnight (O/N) in aerobic conditions (37° C. with 220 rpm shaking), next day a 1:100 inoculum in Mueller-Hinton broth (MHB) is incubated in aerobic conditions for 3 hr (OD=0.08-0.1) and an inoculum of 1:300 dilution, corresponding to 3×10^5 CFU/ml, is incubated in presence or absence of different concentrations of the tested molecules in 1% DMSO. After O/N growth the OD of each culture was measured at 600 nm (OD600) in a spectrophotometer (Victor 3-Perkin Elmer). The MIC represents the concentration at which there is no visible growth of bacteria, i.e. ΔOD at 600 nm equal to zero (blank is the medium alone).
as §1

[3] = tested on: S. aureus Xen29 (ATCC 12600); experiment: MIC determination on bioluminescent S. aureus Xen29; format: cell-based, Staphylococcus aureus; settings: for MIC: Staphylococcus aureus; for antibacterial activity / inhibition of Xen29 growth (in words): MHB medium
Protocol: as §2, §3, §4, §5, §1

[4] = Staphylococcus epidermidis, MHB medium, tested up to 100 μM, read-out: MIC MRSE
[5] = Staphylococcus epidermidis, read-out: MIC MRSE
[6] = MHB medium, tested up to 100 μM, hydrochloride, read-out: MIC MRSE

Structure (SMILES)	MIC ([1]; Staphylococcus epidermidis, read-out: MIC MRSE (comparison molecules of WO2009/034386))	MIC ([2]; read-out: MIC MRSA (comparison molecules of WO2009/034386))	MIC ([3]; ATCC12600, read-out: MIC Xen29 (comparison molecules of WO2009/034386))	antibacterial activity / inhibition of MRSE growth (in words) ([1]; MHB medium)	MIC [1, 4]	antibacterial activity against MRSA (in words) [2]	MIC ([2]; read-out: MIC MRSA)	antibacterial activity / inhibition of Xen29 growth (in words) [3]	MIC ([3]; ATCC12600, read-out: MIC Xen29)	MIC [1, 5]	MIC [1, 6]	MIC ([1]; MHB medium, tested up to 100 μM, read-out: MIC MRSE)
CCCCOc1nc(NC2CC2)c2ncn(Cc3c(F)ccc(C)c3F)c2n1 [38z″, 2-Butoxy-N-cyclopropyl-9-(2,6-difluoro-3-methylbenzyl)-9H-purin-6-amine, reference compound]	> 200 µM	> 200 µM	> 200 µM	–	–	–	–	–	–	–	–	–
CSc1nc(N[C@@H]2C[C@H]2c2ccc(F)c(F)c2)c2ncn(C)c2n1 [Molecule 2498, N-((1R,2S)-2-(3,4-difluorophenyl)cyclopropyl)-9-methyl-2-(methylthio)-9H-purin-6-amine]	–	–	–	able to inhibit MRSE growth	60 µM (≈ 20.8 µg/mL)	active	30 µM (≈ 10.4 µg/mL)	able to inhibit	30 µM (≈ 10.4 µg/mL)	–	–	–
CCSc1nc(N[C@@H]2C[C@H]2c2ccc(F)c(F)c2)c2ncn(C)c2n1 [Molecule 2525, N-((1R,2S)-2-(3,4-difluorophenyl)cyclopropyl)-2-(ethylthio)-9-methyl-9H-purin-6-amine]	–	–	–	able to inhibit MRSE growth	40 µM (≈ 14.5 µg/mL)	active	25 µM (≈ 9.04 µg/mL)	able to inhibit	30 µM (≈ 10.8 µg/mL)	–	–	–
CCSc1nc(N[C@@H]2C[C@H]2c2ccc(F)c(F)c2)c2ncn(CC)c2n1 [Molecule 2527, N-((1R,2S)-2-(3,4-difluorophenyl)cyclopropyl)-9-ethyl-2-(ethylthio)-9H-purin-6-amine]	–	–	–	able to inhibit MRSE growth	25 µM (≈ 9.39 µg/mL)	active	25 µM (≈ 9.39 µg/mL)	able to inhibit	30 µM (≈ 11.3 µg/mL)	–	–	–
CSc1nc(N[C@@H]2C[C@H]2c2ccc(F)c(F)c2)c2cnn(C)c2n1 [Molecule 2539, N-((1R,2S)-2-(3,4-difluorophenyl)cyclopropyl)-1-methyl-6-(methylthio)-1H-pyrazolo[3,4-d]pyrimidin-4-amine]	–	–	–	able to inhibit MRSE growth	50 µM (≈ 17.4 µg/mL)	active	25 µM (≈ 8.68 µg/mL)	able to inhibit	30 µM (≈ 10.4 µg/mL)	–	–	–
CCn1ncc2c(N[C@@H]3C[C@H]3c3ccc(F)c(F)c3)nc(SC)nc21 [Molecule 2544, N-((1R,2S)-2-(3,4-difluorophenyl)cyclopropyl)-1-ethyl-6-(methylthio)-1H-pyrazolo[3,4-d]pyrimidin-4-amine]	–	–	–	able to inhibit MRSE growth	80 µM (≈ 28.9 µg/mL)	active	50 µM (≈ 18.1 µg/mL)	able to inhibit	50 µM (≈ 18.1 µg/mL)	–	–	–
CSc1nc(N[C@@H]2C[C@H]2c2ccc(F)c(F)c2)c2cnn(C(C)C)c2n1.Cl [Molecule 2676, N-((1R,2S)-2-(3,4-difluorophenyl)cyclopropyl)-1-isopropyl-6-(methylthio)-1H-pyrazolo[3,4-d]pyrimidin-4-amine hydrochloride]	–	–	–	able to inhibit MRSE growth	–	active	20 µM	–	> 100 µM	50 µM	–	–
CCCSc1nc(N[C@@H]2C[C@H]2c2ccc(F)c(F)c2)c2cnn(C)c2n1.Cl [Molecule 2782, N-((1R,2S)-2-(3,4-difluorophenyl)cyclopropyl)-6-(propylthio)-1-methyl-1H-pyrazolo[3,4-d]pyrimidin-4-amine hydrochloride]	–	–	–	–	–	active	25 µM	–	–	> 100 µM	>100 µM	–
CCSc1nc(N[C@@H]2C[C@H]2c2ccc(F)c(F)c2)c2cnn(CC)c2n1.Cl [Molecule 2783, N-((1R,2S)-2-(3,4-difluorophenyl)cyclopropyl)-6-(ethylthio)-1-ethyl-1H-pyrazolo[3,4-d]pyrimidin-4-amine hydrochloride]	–	–	–	–	–	active	25 µM	–	–	> 100 µM	>100 µM	–
CCCSc1nc(N[C@@H]2C[C@H]2c2ccc(F)c(F)c2)c2cnn(CC)c2n1.Cl [Molecule 2784, N-((1R,2S)-2-(3,4-difluorophenyl)cyclopropyl)-6-(propylthio)-1-ethyl-1H-pyrazolo[3,4-d]pyrimidin-4-amine hydrochloride]	–	–	–	–	–	active	50 µM	–	–	> 100 µM	>100 µM	–
CCCCSc1nc(N[C@@H]2C[C@H]2c2ccc(F)c(F)c2)c2ncn(CC)c2n1 [Molecule 2840, 2-(butylthio)-N-((1R,2S)-2-(3,4-difluorophenyl)cyclopropyl)-9-ethyl-9H-purin-6-amine]	–	–	–	–	> 100 µM	active	50 µM (≈ 20.2 µg/mL)	–	–	–	–	>100 µM
